Laboratory results: patent US20070004660A1, “Synergistic Modulation of Flt3 Kinase Using Alkylquinolines and Alkylquinazolines” (priority 2005, published 2007)

Experiments:
[1] = target: T1, isolated kinase domain of the human FLT3 receptor (a.a. 571-993) (Homo sapiens, UniProt P36888); assay: FLT3 fluorescence polarization kinase assay; type: biochemical; conditions: 150 uM ATP; uncertainty ±10%
T1 construct: human FLT3 receptor (a.a. 571-993)
T1 sequence (P36888 571-993): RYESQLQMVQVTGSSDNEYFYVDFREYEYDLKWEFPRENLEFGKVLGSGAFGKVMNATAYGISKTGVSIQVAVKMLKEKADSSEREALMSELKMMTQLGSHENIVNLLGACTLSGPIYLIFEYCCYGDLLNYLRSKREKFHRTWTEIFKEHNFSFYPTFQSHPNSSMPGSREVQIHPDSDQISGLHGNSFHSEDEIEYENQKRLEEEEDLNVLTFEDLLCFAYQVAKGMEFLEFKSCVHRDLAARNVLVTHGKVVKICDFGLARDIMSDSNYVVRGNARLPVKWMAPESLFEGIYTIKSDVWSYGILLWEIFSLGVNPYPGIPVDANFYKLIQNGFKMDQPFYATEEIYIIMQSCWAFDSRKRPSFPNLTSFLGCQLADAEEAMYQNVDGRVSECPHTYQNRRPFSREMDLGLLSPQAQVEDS

MV4-11 cells = assay: Inhibition of MV4-11 cell proliferation (CellTiterGlo, 72 h); type: cell-based; conditions: Homo sapiens; 72 h growth inhibition; uncertainty ±20%

Row | IC50 [1] [nM] | IC50 (MV4-11 cells) [nM] | SMILES
1 | 9 | 86 | COc1cc2ncnc(C3CCN(C(=O)Nc4ccc(C(C)C)cc4)CC3)c2cc1OC [Example 4, 4-(6,7-Dimethoxy-quinazolin-4-yl)-piperidine-1-carboxylic acid (4-isopropyl-phenyl)-amide]
2 | 42 | 171 | COc1cc2ncnc(C3CCN(CC(=O)Nc4ccc(OC(C)C)cc4)CC3)c2cc1OC [Example 10, 2-[4-(6,7-Dimethoxy-quinazolin-4-yl)-piperidin-1-yl]-N-(4-isopropoxy-phenyl)-acetamide]
3 | 27 | 277 | O=C(Nc1ccc(N2CCOCC2)cc1)N1CCC(c2ncnc3cc(OCCC4CCCCN4)ccc23)CC1 (centres unmarked) [Example 98, 4-[7-(2-Piperidin-2-yl-ethoxy)-quinazolin-4-yl]-piperidine-1-carboxylic acid (4-morpholin-4-yl-phenyl)-amide]
4 | 19 | 7 | CCC(C)c1ccc(NC(=O)N2CCC(c3ncnc4cc(OC)c(OC)cc34)CC2)cc1 (centres unmarked) [Example 52, 4-(6,7-Dimethoxy-quinazolin-4-yl)-piperidine-1-carboxylic acid (4-sec-butyl-phenyl)-amide]
5 | 64 | 91 | CN1CCN(CCCOc2ccc3c(C4CCN(C(=O)Nc5cnc(N6CCCC6)nc5)CC4)ncnc3c2)CC1 [Example 105, 4-{7-[3-(4-Methyl-piperazin-1-yl)-propoxy]-quinazolin-4-yl}-piperidine-1-carboxylic acid (2-pyrrolidin-1-yl-pyrimidin-5-yl)-amide]
6 | 700 | 1200 | COc1cc2ncnc(C3CCN(C(=O)Nc4ccc(N5CCCC5=O)cc4)CC3)c2cc1OC [Example 57, 4-(6,7-Dimethoxy-quinazolin-4-yl)-piperidine-1-carboxylic acid [4-(2-oxo-pyrrolidin-1-yl)-phenyl]-amide]
7 | 1 | 58 | CN1CCC(COc2ccc3c(C4CCN(C(=O)Nc5ccc(N6CCCC6)nc5)CC4)ncnc3c2)CC1 [Example 99, 4-[7-(1-Methyl-piperidin-4-ylmethoxy)-quinazolin-4-yl]-piperidine-1-carboxylic acid (6-pyrrolidin-1-yl-pyridin-3-yl)-amide]
8 | 72 | 59 | CCN(CC)CC#Cc1ccc2ncnc(C3CCN(C(=O)Nc4ccc(OC(C)C)cc4)CC3)c2c1 [Example 13, 4-[6-(3-Diethylamino-prop-1-ynyl)-quinazolin-4-yl]-piperidine-1-carboxylic acid (4-isopropoxy-phenyl)-amide]
9 | 32 | 149 | CC(C)Oc1ccc(NC(=O)N2CCC(c3ncnc4ccc(C#CCO)cc34)CC2)cc1 [Example 12, 4-[6-(3-Hydroxy-prop-1-ynyl)-quinazolin-4-yl]-piperidine-1-carboxylic acid (4-isopropoxy-phenyl)-amide]
10 | 55 | 232 | CC(C)c1ccc(NC(=O)N2CCC(c3ncnc4ccccc34)CC2)cc1 [Example 7, 4-Quinazolin-4-yl-piperidine-1-carboxylic acid (4-isopropyl-phenyl)-amide]
11 | 1 | 18 | CN1CCN(CCCOc2ccc3c(C4CCN(C(=O)Nc5ccc(OC6CCCC6)nc5)CC4)ncnc3c2)CC1 [Example 82, 4-{7-[3-(4-Methyl-piperazin-1-yl)-propoxy]-quinazolin-4-yl}-piperidine-1-carboxylic acid (6-cyclopentyloxy-pyridin-3-yl)-amide]
12 | 46 | 460 | CC(C)Oc1ccc(NC(=O)N2CCC(c3ncnc4ccc(I)cc34)CC2)cc1 [Example 11, 4-(6-Iodo-quinazolin-4-yl)-piperidine-1-carboxylic acid (4-isopropoxy-phenyl)-amide]
13 | 225 | 81 | COCCCOc1ccc2c(C3CCN(C(=O)Nc4ccc(N5CCOCC5)cc4)CC3)ncnc2c1 [Example 78, 4-[7-(3-Methoxy-propoxy)-quinazolin-4-yl]-piperidine-1-carboxylic acid (4-morpholin-4-yl-phenyl)-amide]
14 | 24 | 197 | CCCCc1ccc(NC(=O)N2CCC(c3ncnc4cc(OC)c(OC)cc34)CC2)cc1 [Example 43, 4-(6,7-Dimethoxy-quinazolin-4-yl)-piperidine-1-carboxylic acid (4-butyl-phenyl)-amide]
15 | 8 | 90 | CS(=O)(=O)N1CCN(CCCOc2ccc3c(C4CCN(C(=O)Nc5ccc(N6CCOCC6)cc5)CC4)ncnc3c2)CC1 [Example 118, 4-{7-[3-(4-Methanesulfonyl-piperazin-1-yl)-propoxy]-quinazolin-4-yl}-piperidine-1-carboxylic acid (4-morpholin-4-yl-phenyl)-amide]
16 | 47 | 53 | O=C(Nc1ccc(N2CCOCC2)cc1)N1CCC(c2ncnc3cc(OCCCN4CCC[C@H]4CO)ccc23)CC1 [Example 119, (S)-4-{7-[3-(2-Hydroxymethyl-pyrrolidin-1-yl)-propoxy]-quinazolin-4-yl}-piperidine-1-carboxylic acid (4-morpholin-4-yl-phenyl)-amide]
17 | 5 | 98 | O=C(NCCCOc1ccc2c(C3CCN(C(=O)Nc4ccc(N5CCCC5)nc4)CC3)ncnc2c1)N1CCOCC1 [Example 112, Morpholine-4-carboxylic acid (3-{4-[1-(6-pyrrolidin-1-yl-pyridin-3-ylcarbamoyl)-piperidin-4-yl]-quinazolin-7-yloxy}-propyl)-amide]
18 | 32 | 69 | CS(=O)(=O)NCCCOc1ccc2c(C3CCN(C(=O)Nc4ccc(N5CCOCC5)nc4)CC3)ncnc2c1 [Example 87, 4-[7-(3-Methanesulfonylamino-propoxy)-quinazolin-4-yl]-piperidine-1-carboxylic acid (6-morpholin-4-yl-pyridin-3-yl)-amide]
19 | 4 | 52 | CN1CCN(CCCOc2ccc3c(C4CCN(C(=O)Nc5ccc(N6CCOCC6)nc5)CC4)ncnc3c2)CC1 [Example 80, 4-{7-[3-(4-Methyl-piperazin-1-yl)-propoxy]-quinazolin-4-yl}-piperidine-1-carboxylic acid (6-morpholin-4-yl-pyridin-3-yl)-amide]
20 | 76 | 59 | COc1cc2ncnc(C3CCN(C(=O)Nc4ccc(OC5CCCC5)nc4)CC3)c2cc1OC [Example 69, 4-(6,7-Dimethoxy-quinazolin-4-yl)-piperidine-1-carboxylic acid (6-cyclopentyloxy-pyridin-3-yl)-amide]
21 | 251 | 179 | CC(C)Oc1ccc(NC(=O)N2CCC(c3ncnc4ccc(OCCCN5CCN(C)CC5)cc34)CC2)cc1 [Example 76, 4-{6-[3-(4-Methyl-piperazin-1-yl)-propoxy]-quinazolin-4-yl}-piperidine-1-carboxylic acid (4-isopropoxy-phenyl)-amide]
22 | 160 | 306 | COc1cc2ncnc(C3CCN(C(=O)Nc4ccc(OC(F)F)cc4)CC3)c2cc1OC [Example 51, 4-(6,7-Dimethoxy-quinazolin-4-yl)-piperidine-1-carboxylic acid (4-difluoromethoxy-phenyl)-amide]
23 | 0.2 | 9 | CC(C)Oc1ccc(NC(=O)N2CCC(c3ncnc4cc(OCC5CCN(C)CC5)ccc34)CC2)cc1 [Example 93, 4-[7-(1-Methyl-piperidin-4-ylmethoxy)-quinazolin-4-yl]-piperidine-1-carboxylic acid (4-isopropoxy-phenyl)-amide]
24 | 36 | 235 | O=C(Nc1ccc(N2CCOCC2)cc1)N1CCC(c2ncnc3cc(OCCN4CCOCC4)ccc23)CC1 [Example 96, 4-[7-(2-Morpholin-4-yl-ethoxy)-quinazolin-4-yl]-piperidine-1-carboxylic acid (4-morpholin-4-yl-phenyl)-amide]
25 | 28 | 262 | CC(=O)N1CCN(CCOc2ccc3c(C4CCN(C(=O)Nc5ccc(N6CCOCC6)cc5)CC4)ncnc3c2)CC1 [Example 97, 4-{7-[2-(4-Acetyl-piperazin-1-yl)-ethoxy]-quinazolin-4-yl}-piperidine-1-carboxylic acid (4-morpholin-4-yl-phenyl)-amide]
26 | 1 | 25 | CC(C)Oc1ccc(NC(=O)N2CCC(c3ncnc4cc(N5CCN(C)CC5)ccc34)CC2)cc1 [Example 103, 4-[7-(4-Methyl-piperazin-1-yl)-quinazolin-4-yl]-piperidine-1-carboxylic acid (4-isopropoxy-phenyl)-amide]
27 | 37 | 30 | O=C1CCCN1CCCOc1ccc2c(C3CCN(C(=O)Nc4ccc(N5CCOCC5)cc4)CC3)ncnc2c1 [Example 68, 4-{7-[3-(2-Oxo-pyrrolidin-1-yl)-propoxy]-quinazolin-4-yl}-piperidine-1-carboxylic acid (4-morpholin-4-yl-phenyl)-amide]

Row | SMILES | IC50 [1] [nM] | IC50 (MV4-11 cells) [nM]
28 | CN1CCN(CCCOc2ccc3c(C4CCN(C(=O)Nc5ccc(N6CCOCC6)cc5)CC4)ncnc3c2)CC1 [Example 73, 4-{7-[3-(4-Methyl-piperazin-1-yl)-propoxy]-quinazolin-4-yl}-piperidine-1-carboxylic acid (4-morpholin-4-yl-phenyl)-amide] | 3 | 40
